Data reported in the NIST ThermoML archive (doi:10.1016/j.fluid.2010.03.010).
± gives the expanded uncertainty stated by the source.

Settings: Liquid, Vibrating tube method

CCCCn1cc[n+](C)c1.N#CN=C=[N-] [1-butyl-3-methylimidazolium dicyanamide]
Settings	mass density [kg/m3]
333.15 K, 34990 kPa	1053.1 ± 8.4
333.15 K, 40000 kPa	1055 ± 8.4
333.15 K, 45010 kPa	1056.8 ± 8.5
333.15 K, 50000 kPa	1058.6 ± 8.5
333.15 K, 55000 kPa	1060.4 ± 8.5
333.15 K, 60000 kPa	1062.2 ± 8.5
334.15 K, 101.33 kPa	1038.08 ± 8.3
335.15 K, 101.33 kPa	1037.47 ± 8.3
336.15 K, 101.33 kPa	1036.86 ± 8.3
337.15 K, 101.33 kPa	1036.25 ± 8.3
338.15 K, 101.33 kPa	1035.64 ± 8.3
339.15 K, 101.33 kPa	1035.03 ± 8.3
340.15 K, 101.33 kPa	1034.42 ± 8.3
341.15 K, 101.33 kPa	1033.82 ± 8.3
342.15 K, 101.33 kPa	1033.21 ± 8.3
343.15 K, 100 kPa	1032.9 ± 8.3
343.15 K, 101.33 kPa	1032.61 ± 8.3
343.15 K, 250 kPa	1033 ± 8.3
343.15 K, 500 kPa	1033.1 ± 8.3
343.15 K, 1000 kPa	1033.3 ± 8.3
343.15 K, 2000 kPa	1033.7 ± 8.3
343.15 K, 4990 kPa	1035 ± 8.3
343.15 K, 10010 kPa	1037.2 ± 8.3
343.15 K, 15000 kPa	1039.2 ± 8.3
343.15 K, 20010 kPa	1041.4 ± 8.3
343.15 K, 25000 kPa	1043.3 ± 8.4
343.15 K, 30000 kPa	1045.4 ± 8.4
343.15 K, 35010 kPa	1047.3 ± 8.4
343.15 K, 40000 kPa	1049.3 ± 8.4
343.15 K, 45000 kPa	1051.1 ± 8.4
343.15 K, 50000 kPa	1053 ± 8.4
343.15 K, 55000 kPa	1054.7 ± 8.4
343.15 K, 60000 kPa	1056.6 ± 8.5
344.15 K, 101.33 kPa	1032 ± 8.3
345.15 K, 101.33 kPa	1031.4 ± 8.2
346.15 K, 101.33 kPa	1030.79 ± 8.2
347.15 K, 101.33 kPa	1030.19 ± 8.2
348.15 K, 101.33 kPa	1029.59 ± 8.2
349.15 K, 101.33 kPa	1028.98 ± 8.2
350.15 K, 101.33 kPa	1028.38 ± 8.2
351.15 K, 101.33 kPa	1027.78 ± 8.2
352.15 K, 101.33 kPa	1027.18 ± 8.2
353.15 K, 100 kPa	1026.8 ± 8.2
353.15 K, 101.33 kPa	1026.58 ± 8.2
353.15 K, 250 kPa	1026.9 ± 8.2
353.15 K, 500 kPa	1027 ± 8.2
353.15 K, 1000 kPa	1027.2 ± 8.2
353.15 K, 2000 kPa	1027.7 ± 8.2
353.15 K, 5000 kPa	1029 ± 8.2
353.15 K, 10000 kPa	1031.3 ± 8.3
353.15 K, 15000 kPa	1033.4 ± 8.3
353.15 K, 20000 kPa	1035.5 ± 8.3
353.15 K, 25000 kPa	1037.5 ± 8.3
353.15 K, 30010 kPa	1039.6 ± 8.3
353.15 K, 35000 kPa	1041.6 ± 8.3
353.15 K, 40000 kPa	1043.6 ± 8.4
353.15 K, 45000 kPa	1045.4 ± 8.4
353.15 K, 50000 kPa	1047.4 ± 8.4
353.15 K, 55000 kPa	1049.2 ± 8.4
353.15 K, 60000 kPa	1051 ± 8.4
354.15 K, 101.33 kPa	1025.98 ± 8.2
355.15 K, 101.33 kPa	1025.38 ± 8.2
356.15 K, 101.33 kPa	1024.79 ± 8.2
357.15 K, 101.33 kPa	1024.19 ± 8.2
358.15 K, 101.33 kPa	1023.59 ± 8.2
359.15 K, 101.33 kPa	1022.99 ± 8.2
360.15 K, 101.33 kPa	1022.4 ± 8.2
361.15 K, 101.33 kPa	1021.8 ± 8.2
362.15 K, 101.33 kPa	1021.21 ± 8.2
363.15 K, 100 kPa	1020.8 ± 8.2
363.15 K, 101.33 kPa	1020.61 ± 8.2
363.15 K, 250 kPa	1020.9 ± 8.2
363.15 K, 500 kPa	1021 ± 8.2
363.15 K, 1000 kPa	1021.3 ± 8.2
363.15 K, 2000 kPa	1021.7 ± 8.2
363.15 K, 4990 kPa	1023.1 ± 8.2
363.15 K, 10000 kPa	1025.4 ± 8.2
363.15 K, 14990 kPa	1027.6 ± 8.2
363.15 K, 20010 kPa	1029.8 ± 8.2
363.15 K, 25010 kPa	1031.8 ± 8.3
363.15 K, 30000 kPa	1033.9 ± 8.3
363.15 K, 35000 kPa	1035.9 ± 8.3
363.15 K, 40000 kPa	1038 ± 8.3
363.15 K, 45000 kPa	1039.9 ± 8.3
363.15 K, 50000 kPa	1041.8 ± 8.3
363.15 K, 55000 kPa	1043.7 ± 8.4
363.15 K, 60000 kPa	1045.6 ± 8.4
373.15 K, 100 kPa	1014.9 ± 8.1
373.15 K, 250 kPa	1015 ± 8.1
373.15 K, 500 kPa	1015.1 ± 8.1
373.15 K, 1000 kPa	1015.4 ± 8.1
373.15 K, 2000 kPa	1015.8 ± 8.1
373.15 K, 4990 kPa	1017.2 ± 8.1
373.15 K, 10000 kPa	1019.5 ± 8.2
373.15 K, 15000 kPa	1021.8 ± 8.2
373.15 K, 20000 kPa	1024 ± 8.2
373.15 K, 25000 kPa	1026.2 ± 8.2
373.15 K, 30000 kPa	1028.3 ± 8.2
373.15 K, 35000 kPa	1030.3 ± 8.2
373.15 K, 40000 kPa	1032.4 ± 8.3
373.15 K, 45000 kPa	1034.4 ± 8.3
373.15 K, 50000 kPa	1036.4 ± 8.3
373.15 K, 55000 kPa	1038.3 ± 8.3
373.15 K, 60000 kPa	1040.2 ± 8.3
393.15 K, 100 kPa	1003.2 ± 8
393.15 K, 250 kPa	1003.3 ± 8
393.15 K, 500 kPa	1003.4 ± 8
393.15 K, 1000 kPa	1003.7 ± 8
393.15 K, 2000 kPa	1004.1 ± 8
393.15 K, 4990 kPa	1005.6 ± 8
393.15 K, 10010 kPa	1008.1 ± 8.1
393.15 K, 15000 kPa	1010.4 ± 8.1
393.15 K, 20010 kPa	1012.8 ± 8.1
393.15 K, 25000 kPa	1015 ± 8.1
393.15 K, 30000 kPa	1017.2 ± 8.1
393.15 K, 35000 kPa	1019.4 ± 8.2
393.15 K, 40000 kPa	1021.6 ± 8.2
393.15 K, 45000 kPa	1023.6 ± 8.2
393.15 K, 50000 kPa	1025.7 ± 8.2
393.15 K, 55000 kPa	1027.7 ± 8.2
393.15 K, 60000 kPa	1029.6 ± 8.2
